{"source": "patent US20060189533A1", "about": "“Stable pharmaceutical dosage forms of teriparatide” (Nastech Pharmaceutical Company Inc., priority 2004, published 2006)", "origin": "cited, not measured here", "key": {"[1]": {"details": "up to 500 μg per day for 7 days; up to 1,000 μg per day for 3 months"}, "[2]": {"system": "ovariectomized rat", "details": "ovariectomized rat model"}, "[3]": {"details": "anesthetized rats"}}, "note": "Read-outs that look alike come from different tables or passages of the source. Where no end group is shown, it is not given here."}
{"compound": "CC[C@H](C)[C@H](NC(=O)[C@H](CCC(=O)O)NC(=O)[C@H](CO)NC(=O)[C@@H](NC(=O)[C@@H](N)CO)C(C)C)C(=O)N[C@@H](CCC(N)=O)C(=O)N[C@@H](CC(C)C)C(=O)N[C@@H](CCSC)C(=O)N[C@@H](Cc1cnc[nH]1)C(=O)N[C@@H](CC(N)=O)C(=O)N[C@@H](CC(C)C)C(=O)NCC(=O)N[C@@H](CCCCN)C(=O)N[C@@H](Cc1cnc[nH]1)C(=O)N[C@@H](CC(C)C)C(=O)N[C@@H](CC(N)=O)C(=O)N[C@@H](CO)C(=O)N[C@@H](CCSC)C(=O)N[C@@H](CCC(=O)O)C(=O)N[C@@H](CCCN=C(N)N)C(=O)N[C@H](C(=O)N[C@@H](CCC(=O)O)C(=O)N[C@@H](Cc1c[nH]c2ccccc12)C(=O)N[C@@H](CC(C)C)C(=O)N[C@@H](CCCN=C(N)N)C(=O)N[C@@H](CCCCN)C(=O)N[C@@H](CCCCN)C(=O)N[C@@H](CC(C)C)C(=O)N[C@@H](CCC(N)=O)C(=O)N[C@@H](CC(=O)O)C(=O)N[C@H](C(=O)N[C@@H](Cc1cnc[nH]1)C(=O)N[C@@H](CC(N)=O)C(=O)N[C@@H](Cc1ccccc1)C(=O)O)C(C)C)C(C)C", "note": "[Teriparatide]", "values": [{"measurement": "safety of the intranasal route", "setting": "[1]", "result": "no safety concerns were noted"}]}
{"compound": "hPTH1-31NH2: linear PTH analogue with only AC-stimulating activity, SEQ ID NO: 3 (SVSEIQLMHNLGKHLNSMERVEWLRKKLQDV-NH2; listed as Homo sapiens)", "values": [{"measurement": "activity in the restoration of bone loss", "setting": "[2]", "result": "fully active"}]}
{"compound": "human growth hormone: protein whose nasal bioavailability is reported to be modestly increased by N-acetyl-L-cysteine", "values": [{"measurement": "nasal bioavailability", "setting": "[3]; before increase by N-acetyl-L-cysteine", "result": 7.5, "unit": "%"}, {"measurement": "nasal bioavailability", "setting": "[3]; with N-acetyl-L-cysteine", "result": 12.2, "unit": "%"}]}
